Among the test systems are MDA-N; SW-620; A549; SF-539; NCI-H460; SK-OV-3; SF-295; RPMI-8226; COLO 205; SNB-75; HCC 2998; LOX IMVI; UACC-62; SN12C; EKVX; MOLT-4; TK-10; LXFL 529; SF-268; Malme-3M.
What all share (test): NCI-60 cell line screen, 48 h

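In this assay, cells in 96-well plates receive the compound at five concentrations for 48 hours. Endpoints are linearly interpolated between the surrounding concentrations. At the GI50, growth is halved.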 Calls of active or inactive are those of the source. Cut-off read from the data, not from the text of the source: active = GI50 up to about 1.1 µM and inactive = higher.

For `CC[C@](C)(O)C(=O)O[C@H]1C(=O)O[C@@H]2C[C@H]3C(C)=CC(=O)[C@@H](O)[C@]3(C)[C@H]3[C@@]4(O)OC[C@]32[C@@H]1[C@@H](C)[C@H]4O` [GLAUCARUBINONE], the GI50 with MDA-N is 0.425 µM (active); with SW-620 it was 0.075 µM (active); in the assay on A549 it was 1.21 µM (inactive); with SF-539 it was 0.05 µM (active); with NCI-H460 it was 0.0912 µM (active); with SK-OV-3, 1.02 µM (active). In addition, the GI50 in the assay on SF-295 is 0.116 µM (active); in the assay with RPMI-8226, 0.0548 µM (active); in the assay with COLO 205, 0.815 µM (active); in the assay with SNB-75 it was 0.0585 µM (active); in the assay on HCC 2998, 0.0679 µM (active); in the assay on LOX IMVI, 0.0354 µM (active). Also, the GI50 with UACC-62 was 0.051 µM (active); in the assay with SN12C it was 0.158 µM (active); in the assay with EKVX it was 0.0545 µM (active); in the assay with MOLT-4, 0.05 µM (active); in the assay with TK-10 it was 0.39 µM (active); in the assay with LXFL 529, < 0.0111 µM (active). Further, in the assay on SF-268, the GI50 was 0.0661 µM (active).
On to `Cc1ccc(Oc2ccccc2N)cc1`, for which the GI50 with Malme-3M is > 100 µM (inactive); in the assay on SW-620 it was 45.9 µM (inactive); with A549, 36.9 µM (inactive); in the assay on SF-539 it was 16.7 µM (inactive); in the assay on NCI-H460, 37.8 µM (inactive); in the assay with SK-OV-3, > 100 µM (inactive). Further, the GI50 in the assay with SF-295 was 37.6 µM (inactive); in the assay on RPMI-8226 it was 33.7 µM (inactive); in the assay on COLO 205, 6.07 µM (inactive); in the assay with SNB-75, 16 µM (inactive); in the assay on HCC 2998, 15.4 µM (inactive); in the assay on LOX IMVI, 23 µM (inactive). Further, the GI50 with UACC-62 was 60.1 µM (inactive); in the assay on SN12C, 31.7 µM (inactive); in the assay on EKVX, 37.5 µM (inactive); in the assay with MOLT-4, 15.4 µM (inactive); in the assay with TK-10, 88.1 µM (inactive); in the assay with LXFL 529 it was 15.7 µM (inactive). In addition, the GI50 in the assay with SF-268 was 46.1 µM (inactive).
For the molecule `CCCCCCCC/C=C1\CCC(CN2CCOCC2)C1=O` (stereo not drawn), the GI50 in the assay with MDA-N was 9.55 µM (inactive); in the assay on Malme-3M it was 10.5 µM (inactive); in the assay with SW-620, 2.7 µM (inactive); in the assay with A549 it was 15 µM (inactive); in the assay on SF-539, 7.74 µM (inactive); in the assay on NCI-H460 it was 16.5 µM (inactive). The GI50 in the assay on SK-OV-3 was 19.9 µM (inactive); with SF-295, 14.7 µM (inactive); in the assay with RPMI-8226 it was 0.551 µM (active); in the assay on COLO 205, 5.77 µM (inactive); in the assay with SNB-75, 2.61 µM (inactive); in the assay with HCC 2998, 11.5 µM (inactive). Also, the GI50 with LOX IMVI was 3.43 µM (inactive); in the assay with UACC-62 it was 5.35 µM (inactive); in the assay with SN12C, 5.7 µM (inactive); in the assay with EKVX, 17.7 µM (inactive); in the assay with MOLT-4 it was 2.13 µM (inactive); in the assay on TK-10, 2.77 µM (inactive). The GI50 is 4.54 µM (inactive) in the assay on LXFL 529 and 9.35 µM (inactive) with SF-268.

(Values after ChEMBL document CHEMBL1201862, “PubChem BioAssay data set” (2004).)
